# Active and inactive are the calls of the source.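 Rule for the calls: active = fitted curve reaching 40% activation at or below the top valid dose tested; inconclusive = flat curve at 30 to 70% activation, or poor fit; inactive = the rest.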
# Test system: SK-MEL-5 TRPM1 promoter luciferase reporter, 24 h
# Assay: MITF activators via TRPM1 promoter reporter, dose response, SK-MEL-5 cells, luciferase, cherry-pick samples (AID 540258);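 for AC40: potency for activators that raise TRPM1 promoter luciferase signal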
# Conditions: not given
row,SMILES,AC40
1,COc1ccc2nc3ccccc3nc2c1,4.11 µM
2,O=c1c2ccccc2oc2c1ccc1ccccc12,10.5 µM
3,CC(C)(C)c1ccc(C(=O)NCc2ccccc2)cc1,8.05 µM
4,Cc1cccc(-c2nnc3sc(-c4ccccc4)nn23)c1,12.2 µM

# Test system: not listed separately
# Assay: as above
# Conditions: SK-MEL-5 TRPM1 promoter luciferase reporter, 24 h; at 11 µM (top of the series); 100% = twice the neutral-control signal
row,SMILES,activation
1,Cc1ccn2cc(C(=O)Nc3nnc(C)s3)nc2c1,28.3% (inactive)

# Same assay, conditions: SK-MEL-5 TRPM1 promoter luciferase reporter, 24 h; at 35 µM (top of the series); 100% = twice the neutral-control signal
row,SMILES,activation
1,COc1ccc(-c2cc(=O)c3cc(C)ccc3[nH]2)cc1,-4.97% (inactive)
2,Cc1ccc(/C=N/c2sc3c(c2C#N)CCC3)s1,3.01% (inactive)
3,CC(C)C(=O)Nc1cccc(C(=O)Nc2nnc(C(C)C)s2)c1,16.6% (inactive)
4,CC(=O)Nc1cccc(-c2csc(Nc3ccc(C)cn3)n2)c1,-25.2% (inactive)
5,CN1CCc2c(sc(NC(=O)c3ccc4ccccc4c3)c2C(N)=O)C1,-68.3% (inactive)
6,CCN(CC)S(=O)(=O)c1cc(C(=O)Nc2cc(C)[nH]n2)ccc1Cl,32.8% (inactive)
7,Cc1c(C(=O)Nc2ccccc2F)cnn1-c1ccccc1,27.5% (inactive)
8,CC(C)(C)N1C(=O)c2ccc(C(=O)Nc3nccs3)cc2C1=O,39% (inactive)
9,Cc1ccc(N=Nc2ccc(O)cc2)c(Br)c1,-1.83% (inactive)
10,Cc1ccc(Nc2nc(CSc3n[nH]c(N)n3)cs2)cc1,-11.9% (inactive)
11,Cc1ccc(SCc2cn3c(C)csc3n2)cc1,-37.7% (inactive)
12,COc1ccccc1C(=O)Nc1ccc2c(C)cc(=O)oc2c1,29.6% (inactive)
13,O=C(Nc1ccccc1)C(=O)Nc1ccc2c(c1)N(C(=O)C1CC1)CCC2,-36.8% (inactive)
14,COc1cccc(CNc2nc3ccccc3n2C)c1O,-9.75% (inactive)
15,CC(C)(C)c1csc(NC2=NS(=O)(=O)c3ccccc32)n1,7.7% (inactive)
16,CCN(CC)C(=O)Oc1ccc2c(=O)c(-c3ccc(OC)cc3)coc2c1,-22.5% (inactive)
17,CC1CCC(NC(=O)c2cc3c(s2)CCCC3)CC1 (stereo not given),33.2% (inactive)
18,Cc1ccn2cc(-c3cccc(NS(C)(=O)=O)c3)nc2c1,32.6% (inactive)
19,O=c1[nH]c(Cc2cccs2)nc2scc(-c3ccc(Cl)cc3)c12,14.1% (inactive)
20,CC(C)NC(=O)c1ccc2c3n(nc2c1)-c1ccc(Cl)cc1CO3,-2.69% (inactive)
21,Cc1ccc(NC(=O)CN2CCCC2c2cccn2C)c(Br)c1 (stereo not given),29% (inactive)
22,COc1cccc(/C=N/Nc2c(Cl)cncc2Cl)c1O,25.5% (inactive)
23,CCc1nnc(NS(=O)(=O)c2ccc(NC(=O)c3cccc(Cl)c3)cc2)s1,-14.9% (inactive)
24,CC(c1ccccc1)c1nnc(NC(=O)Nc2ccccc2F)s1 (stereo not given),38.2% (inactive)
25,COc1ccc(NC2=Nc3ccccc3CC2)cc1,2.84% (inactive)
26,Fc1ccccc1Nc1nc2ccccc2o1,-20% (inactive)
27,CC(C)(C)C(=O)Nc1nc2cc3c(cc2s1)OCO3,-25.8% (inactive)
28,O=C(N/N=C/c1ccc(OC(=O)c2ccccc2Cl)cc1)c1ccccn1,6.04% (inactive)

row,SMILES,activation
1,Nc1ncccc1OCc1ccc(Br)cc1,-6.84% (inactive)
2,COc1ccc(/C=C/c2ccc3c(Br)ccc(O)c3n2)cc1,25.4% (inactive)
3,O=C(Nc1cccc2[nH]ncc12)c1ccc(F)cc1,28.3% (inactive)
4,CCN(CC)S(=O)(=O)c1cccc(C(=O)N/N=C(\C)c2cccs2)c1,23.7% (inactive)
5,CCN(CC)c1ccc(C(=O)NNC(=O)c2cccn2C)cc1,25.3% (inactive)
6,CSCC[C@H](NC(=O)[C@@H]1Cc2ccccc2CN1)C(=O)NC[C@H]1CC[C@H](C(=O)O)CC1,-11.7% (inactive)
7,Cc1cccc(C(=O)Nc2sc3c(c2C#N)CCCCC3)c1,3.85% (inactive)
8,O=C(CNC(=O)c1cccs1)c1ccc(Br)cc1,1.98% (inactive)
9,CCn1cnc2c(Nc3cccc(Cl)c3)nc(C#N)nc21,14.6% (inactive)
10,CC(=O)c1ccc(NC(=O)c2noc3c2CCCCC3)cc1,-0.504% (inactive)
11,COC(=O)C(C)N1C(=O)S/C(=C/c2cc(C)n(C(C)C)c2C)C1=O (stereo not given),-32% (inactive)
12,O=c1[nH]c(COc2ccccc2)nc2ccccc12,24.6% (inactive)
13,Cc1nnc2sc(-c3ccc(N(C)C)cc3)nn2c1=O,-5.15% (inactive)
14,COc1cccc(CN(C)C(=O)c2ccc(COc3ccc(Cl)cc3)cc2)c1OC,32.6% (inactive)
15,COc1ccc(C(=O)Nc2cc(OC)nc(OC)n2)cc1,6.12% (inactive)
16,Cc1nc2ccccn2c1C(=O)N/N=C/c1ccc2c(c1)OCO2,34.3% (inactive)
17,C/C(=N\OC(=O)c1cccc(C(F)(F)F)c1)c1sc(-c2ccccc2)nc1C,14.6% (inactive)
18,Cc1ccccc1C(=O)O/N=C(\N)Cc1cccs1,23.1% (inactive)
19,Cc1cc(C)n(-c2nnc(NC(C)(C)C)nn2)n1,31.6% (inactive)
20,c1ccc(-c2ccc(-c3cnc4n3CCCCC4)cc2)cc1,30.4% (inactive)
21,COC(=O)Nc1nnc(-c2ccccc2Cl)s1,36% (inactive)
22,O=C(CNc1ccccc1OC(F)F)N1CCc2ccccc21,31.9% (inactive)
23,COC(=O)Cn1c(=NC(=O)c2ccc(Cl)s2)sc2cc(C)ccc21,23.7% (inactive)
24,O=C(Nc1cnc2ccccc2c1)N1CCCCC1,8.92% (inactive)
25,Cc1cc(C)n2nc(SCN3C(=O)c4ccccc4C3=O)nc2n1,-5.27% (inactive)
26,Cc1ccc2oc(Nc3nc(C)c(C)c(C)n3)nc2c1,34.2% (inactive)
27,CCCc1ccc(-c2cc(C(=O)NCCc3ccc(S(N)(=O)=O)cc3)c3ccccc3n2)cc1,26.4% (inactive)

# Reference: PubChem BioAssay AID540258 (Broad Institute, 2011)
